Results on 1 compound are retold here after patent publication US11007206B2, “Cyclic boronic acid ester derivatives and therapeutic uses thereof” (Melinta Subsidiary Corp., priority 2012, dated 2021).

Read-outs that look alike come from different tables or passages of the source.

The nature of series [1]: Single-dose pharmacokinetics of Compound I, intraperitoneal administration to Swiss-Webster mice (Example 5). In kind it is in vivo. The following applies: plasma, Mouse; for CL/F: read-out: CL or CL/F (converted). How it is done: (§1) Example 5 provides the single-dose pharmacokinetic studies of Compound I inpreclinical species, including intraperitoneal administration to Swiss-Webster mice and intravaneous administration to Sprague-Dawley rats, Beagle dogs, and Cynomologus monkeys.
(§2) Intravaneous doses of Compound I were administered as 30-minute infusions. The pharmacokinetics of Compound I were also studied with coadministration of the carbapenem, Biapenem. Compound I concentrations were determined using an LC-MS detection method.

A short description of series [2]: Single-dose pharmacokinetics of Compound I across all preclinical species, summary statements incl. coadministration of Biapenem (Example 5). The format is in vivo. The procedure:
as §1, §2

What is called AUC is the area under the concentration-time curve, a measure of exposure. High values mean high exposure, low ones low exposure. The Cmax is the highest concentration seen after dosing. By half-life is commonly meant how long it takes for the measured level to halve. Read a high half-life as slow loss. For `O=C(O)C[C@@H]1CC[C@H](NC(=O)Cc2cccs2)B(O)O1` [Compound I], in series [1] (5 mg/kg IP), the exposure (AUC) is 3100 ng·h/mL, the concentration peaked (Cmax) at 8260 ng/mL, the half-life is 9.6 min and the CL/F was 26.8 mL/min/kg. In addition, in series [1] (15 mg/kg IP), the AUC is 8300 ng·h/mL, the highest concentration (Cmax) came out at 19500 ng/mL, the half-life was 12 min and the CL/F is 30 mL/min/kg. In series [1] (50 mg/kg IP), the area under the curve (AUC) was 31400 ng·h/mL, the Cmax is 67100 ng/mL, the half-life is 15 min and the CL/F is 26.7 mL/min/kg. In addition, the Pharmacokinetic properties result in series [2] (across all species (mice, rats, dogs, monkeys), single dose) is “linear and favorable pharmacokinetic properties”. In addition, in series [2] (across preclinical species, single dose), the “Dose dependence of clearance and volume of distribution” value is given as “independent of dose”. In series [2] (coadministration of Biapenem), the “PK drug interactions between Compound I and Biapenem” value is “No PK drug interactions”.
